According to US8652509B2, “Method of wound hemostasis using liquid gallium nitrate” (priority 2009, dated 2014):
Entries after “also recorded” stand apart in the source; their conditions may differ.

Legend:
bleeding time = assay: Bleeding time test, forearm puncture with #11 scalpel blade (Experiment 4); type: in vivo, human
Excerpt: The bleeding time test measures the function of a number of coagulation pathway parameters, including platelet function, extrinsic coagulation pathway and intrinsic coagulation pathway. Here, in order to better understand the various coagulation pathways that might be impacted by gallium nitrate, a bleeding function experiment was done to see if the gallium nitrate effect worked for patients (e.g. Warfarin or Coumadin™ patients) with a suppressed extrinsic coagulation pathway.
In this experiment, a first subject (Subject 1) was treated with Coumadin™ (Warfarin) to achieve a therapeutic dose with an International Normalized Ratio (INR) of 2.5.
Subject 1: To induce bleeding, the first INR 2.5 subject's mid forearm was punctured with a #11 scalpel blade to a depth of 4 mm. This produced prompt flow of blood in the form of a steady slow blood stream down the subject's forearm. This blood flow was gently wiped with gauze every 30 seconds without applying pressure. Under these control (no gallium nitrate) conditions, the bleeding stopped at 122 seconds.
To investigate the effect of gallium nitrate, a second puncture was then made to the arm of the INR 2.5 subject following the same methods as for the first puncture. However in this portion of the experiment, at 5 seconds after puncture, once blood flow had commenced, a gallium nitrate (14%) solution was applied using a soaked cotton-ball. In contrast to the previous no-gallium control, in this gallium nitrate application experiment, blood flow ceased after only 35 seconds. A small pool of blood stayed about incision site. Thus for an INR 2.5 patient, gallium nitrate reduced bleeding time from a control of 122 seconds to a value of only 35 seconds, which is a very substantial decrease.
Subject 2: A mid forearm puncture was made following the same methods as described above. This first puncture was gently wiped with gauze every 30 seconds without applying pressure. In this no gallium nitrate control condition, bleeding stopped at 268 seconds
To investigate the effect of gallium nitrate, a second puncture was then made following the same methods as for the first puncture. At 5 seconds after puncture, once blood flow had commenced, a gallium nitrate (14%) solution was applied using a soaked cotton-ball. By 77 seconds the flow had ceased and a visible clot had started to form.

open wound = assay: Topical application of aqueous gallium nitrate to accidental open bleeding wounds (Experiments 1-3); type: in vivo, human
Excerpt: Unless otherwise specified, all experiments below used an aqueous solution of unbuffered Ga(NO3)3, dissolved in water in the 5% to 15% weight/volume concentration range, specifically as stated. Note that none of these formulations contained citrate.
A first human subject sustained an accidental 1-inch long gash to the index finger, deep enough to extend below the epidermis, but stopping short of the bone. The wound bled profusely and hurt intensely. Subject immediately inserted the finger into a solution of concentrated (non-medical) 14% aqueous gallium nitrate. […] Subject kept the finger in the 14% aqueous gallium nitrate solution for 10 minutes. […] A regular bandage was then applied. Although a wound of this depth would normally require stitches, by the time further medical treatment was sought, stitches were no longer deemed necessary.
A different (second) human subject sustained an accidental 1-inch wide gash to the chin which again penetrated the epidermis, stopped short of the bone, and which bled very profusely. The wound was treated by liberally applying the same type of 14% gallium nitrate solution used in Experiment 1.
A third human subject sustained an accidental 2-inch wide and quite deep gash (penetrating the epidermis, stopping short of the bone) to the top of the forehead, accompanied by profuse bleeding. A less concentrated (7% aqueous gallium nitrate) topical solution was then applied.

## O=[N+]([O-])[O-].O=[N+]([O-])[O-].O=[N+]([O-])[O-].[Ga+3] [gallium nitrate]
Bleeding time; Coumadin treated subject, 14% solution
  visible clot formation: did not form a visible clot
Bleeding time; Subject 1, Coumadin (Warfarin) treated, INR 2.5, 14% solution applied with soaked cotton-ball 5 seconds after puncture
  bleeding time (blood flow ceased): 35 s
Bleeding time; Subject 2, non-Coumadin treated, 14% solution applied with soaked cotton-ball 5 seconds after puncture
  bleeding time (flow ceased): 77 s
Bleeding time; both the Warfarin/Coumadin treated and the non-treated subject, 14% solution
  reduction of bleeding time compared to no-gallium nitrate control: approximately 75%
Bleeding time; non-Coumadin treated subject, 14% solution
  visible clot formation: formed a very visible brown clot
Open wound; Experiment 1: 14% aqueous gallium nitrate, finger gash, regular bandage afterwards
  wound healing: healed completely within a matter of days
Open wound; Experiment 1: 14% aqueous gallium nitrate, finger kept in solution for 10 minutes
  pain: near immediate reduction in pain; also recorded: no pain was felt
Open wound; Experiment 1: first human subject, 1-inch gash to index finger, finger inserted into 14% aqueous gallium nitrate, no citrate
  bleeding stopped: stopped within a few seconds
Open wound; Experiment 2: 14% gallium nitrate solution, chin gash, examined by treating physician shortly thereafter
  resulting clot: unusual strength
Open wound; Experiment 2: second human subject, 1-inch gash to chin, 14% gallium nitrate solution liberally applied
  bleeding stopped: rapidly stopped bleeding
Open wound; Experiment 3: third human subject, 2-inch deep gash to forehead, 7% aqueous gallium nitrate topical
  bleeding stopped: stopped bleeding unusually quickly
Open wound; summary of the accidental event: aqueous 14% gallium nitrate on a large open wound immediately after wound formation
  clot formation: unexpectedly rapid clot formation
